Results taken from patent publication US8461107B2 (Merck Sharp & Dohme Corp., priority 2008, dated 2013).

Molecular target: T1, HCV genotype 1b (BK) NS3 modified with a R155K mutation (Hepatitis C virus genotype 1b, UniProt P26663, R1181K)
T1 construct: HCV genotype 1b (BK) NS3 modified with a R155K mutation
Assay: HCV NS3 protease time-resolved fluorescence (TRF) assay, NS3 protease 1b R155K Ki activity
Format: biochemical
Details: HCV genotype 1b (BK) NS3 with R155K mutation; TRF peptide substrate 100 nM; Ki derived from IC50
How it was run: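 Pre-incubation of NS3/NS4A protease (genotype 1b BK, R155K) with inhibitor for 30 min, then 1 h at room temperature with 100 nM TRF peptide substrate in pH 7.5 HEPES buffer with 10 mM DTT. Reaction quenched with pH 5.5 MES; time-resolved fluorescence read (ex 340/em 615 nm). Ki derived from four-parameter IC50 fit via IC50=Ki(1+[S]/KM).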

Structure (SMILES): CC[C@@H]1C[C@]1(NC(=O)[C@@H]1C[C@@H]2CN1C(=O)[C@H](C1CCCC1)NC(=O)O[C@@H]1CCC[C@H]1CC/C=C/Cn1c(nc3cc(OC)ccc3c1=O)O2)C(=O)NS(=O)(=O)C1CC1 [Example 50, (3aR,7S,10S,12R,22E,25aS)-7-cylcopentyl-N-((1R,2R)-1-{[(cyclopropylsulfonyl)amino]carbonyl}-2-ethylcyclopropyl)-16-methoxy-5,8,19-trioxo-1,2,3,3a,5,6,7,8,11,12,21,24,25,25a-tetradecahydro-10H,19H-9,12-methanocyclopenta[18,19][1,10,3,6,12]dioxatriazacyclononadecino[11,12-b]quinazoline-10-carboxamide]
- Ki: 0.1 to 0.5 nM

Structure (SMILES): C=C[C@@H]1C[C@]1(NC(=O)[C@@H]1C[C@@H]2CN1C(=O)[C@H](C1CCCC1)NC(=O)O[C@@H]1CCC[C@H]1CC/C=C/Cn1c(nc3c(OC)cccc3c1=O)O2)C(=O)NS(=O)(=O)C1CC1 [Example 51]
- Ki: < 0.1 nM

Structure (SMILES): C=C[C@@H]1C[C@]1(NC(=O)[C@@H]1C[C@@H]2CN1C(=O)[C@H](C1CCCC1)NC(=O)O[C@@H]1CCC[C@H]1CC/C=C/Cc1c(nc3cc(OC)ccn3c1=O)O2)C(=O)NS(=O)(=O)C1CC1 [Example 57, (3aR,7S,10S,12R,22E,25aS)-7-cyclopentyl-N-((1R,2S)-1-{[(cyclopropylsulfonyl)amino]carbonyl}-2-vinylcylcopropyl)-16-methoxy-5,8,20-trioxo-1,2,3,3a,5,6,7,8,11,12,21,24,25,25a-tetradecahydro-10H,20H-9,12-methanocyclopenta[r]pyrido[1′,2′:1,2]pyrimido[4,5-k][1,10,3,6]dioxadiazacyclononadecine-10-carboxamide]
- Ki: < 0.1 nM

Structure (SMILES): C=C[C@@H]1C[C@]1(NC(=O)[C@@H]1C[C@@H]2CN1C(=O)[C@H](C1CCCC1)NC(=O)O[C@@H]1CCC[C@H]1CC/C=C/Cn1c(nc3cc(C)ccc3c1=O)O2)C(=O)NS(=O)(=O)C1CC1 [Example 61]
- Ki: < 0.1 nM

Structure (SMILES): C=C[C@@H]1C[C@]1(NC(=O)[C@@H]1C[C@@H]2CN1C(=O)[C@H](C1CCCC1)NC(=O)O[C@@H]1CCC[C@H]1CC/C=C/Cn1c(nc3cc(C#N)ccc3c1=O)O2)C(=O)NS(=O)(=O)C1CC1 [Example 63, (3aR,7S,10S,12R,22E,25a8)-16-cyano-7-cyclopentyl-N-((1R,2S)-1-{[(cyclopropylsulfonyl)amino]carbonyl}-2-vinylcyclopropyl)-5,8,19-trioxo-1,2,3,3a,5,6,7,8,11,12,21,24,25,25a-tetradecahydro-10H,19H-9,12-methanocyclopenta[18,19][1,10,3,6,12]dioxatriazacyclononadecino[11,12-b]quinazoline-10-carboxamide]
- Ki: < 0.1 nM

Structure (SMILES): C=C[C@@H]1C[C@]1(NC(=O)[C@@H]1C[C@@H]2CN1C(=O)[C@H](C1CCCC1)NC(=O)O[C@@H]1CCC[C@H]1CCCCCn1c(nc3cc(C#N)ccc3c1=O)O2)C(=O)NS(=O)(=O)C1CC1 [Example 78, (3aR,7S,10S,12R,25aR)-16-cyano-7-cyclopentyl-N-((1R,2S)-1-{[(cycyclopropylsulfonyl)amino]carbonyl}-2-vinylcyclopropyl)-5,8,19-trioxo-1,2,3,3a,5,6,7,8,11,12,21,22,23,24,25,25a-hexadecahydro-10H,19H-9,12-methanocyclopenta[18,19][1,10,3,6,12]dioxatriazacyclononadecino[11,12-b]quinazoline-10-carboxamide]
- Ki: 0.1 to 0.5 nM

Structure (SMILES): C=C[C@@H]1C[C@]1(NC(=O)[C@@H]1C[C@@H]2CN1C(=O)[C@H](C1CCCC1)NC(=O)O[C@@H]1CCC[C@H]1CCC=CCn1c(cccc1=O)O2)C(=O)NS(=O)(=O)C1CC1 [Example 81, (1R,10E, and 10Z,14S,18R,22S,25S)-22-Cyclopentyl-N-((1R,2S)-1-{[(cyclopropyl-sulfonyl)amino]carbonyl}-2-vinylcyclopropyl)-7,20,23-trioxo-2,19-dioxa-8,21,24-tri azatetracyclo[22.2.1.0^3,8.0^14,18]heptacosa-3,5,10-triene-25-carboxamide]
- Ki: 0.1 to 0.5 nM
